Experimental data as given in US20180116990A1, “COMPOSITION OF BIOACTIVE LIPIDS AND METHODS OF USE THEREOF” (UND Life Sciences, LLC, priority 2016, published 2018).
Read-outs that look alike come from different tables or passages of the source.

B1: BDNF: brain-derived neurotropic factor (BDNF), a neurotrophin (protein, UniProt P23560 19-247, looked up)
Neurotrophic factor BDNF …: APMKEANIRGQGGLAYPGVRTHGTLESVNGPKAGSRGLTSLADTFEHVIEELLDEDQKVRPNEENNKDADLYTSRVMLSSQVPLEPPLLFLLEEYKNYLDAANMSMRVRRHSDPARRGELSVCDSISEWVTAADKKTAVDMSGGTVTVLEKVPVSKGQLKQYFYETKCNPMGYTKEGCRGIDKRHWNSQCRTTQSYVRALTMDSKKRIGWRFIRIDTSCVCTLTIKRGR

What was measured:
[1] = test system: VEGF-induced angiogenesis; test: effect of bioactive lipids on angiogenesis induced by VEGF in vitro (FIG. 10); type: cell-based; conditions: positive test control taken as 100%
Method: C=Control; T=positive test control taken as 100%; RSv=Resolvin E1; PRt=Protectin D1; MaR=Maresin; L+R+P+M=LXA4=resolvin D1+Protectin D1+Maresin in 1:1:1:1 ratio.
(§1) In another study, this was similar to the study given in Examples 5 and 6, except that in this instance different bioactive lipids singly and in combination were tested in combination with or without anti-VEGF antibody. Thus, in this study, experimental animals received LXA4, resolvin E1, resolvin D1, protectin D1, maresin 1 or a combination of LXA4+resolvin E1+protectin D1+maresin 1 (in the ratio of 1:1:1:1)±anti-VEGF antibody were given with appropriate control groups. In this study, dose of bioactive lipids used was 5 ng, 10 ng, 15 ng, 20 ng, 50 ng, 100 ng, 200 ng, 500 ng, 1 μg, 5 μg, or 25.0 μg once in 4 weeks for 3 months. […] A summary of the results obtained with bioactive lipids on angiogenesis (FIG. 10) in vitro; on STZ-induced cytotoxicity to vascular endothelial cells (FIG. 11); on LPS-induced IL-6 and TNF-α secretion by human macrophages in vitro (FIG. 12); on PGE2 and VEGF secretion by LPS stimulated ARPE cells in vitro (FIG. 13); leukocyte migration and adherence to endothelial cells in vitro (FIG. 14); and BDNF secretion by ARPE cells stimulated by LPS (FIG. 15) are given in respective figures.

[2] = test system: vascular endothelial cells; test: STZ-induced cytotoxic action on vascular endothelial cells in vitro (FIG. 11); type: cell-based; conditions: STZ cytotoxicity taken as 100%
Method: C=Control; STZ=Streptozotocin-induced cytotoxicity taken as positive control taken as 100%; RSv=Resolvin E1; PRt=Protectin D1; MaR=Maresin; L+R+P+M=LXA4=resolvin D1+Protectin D1+Maresin in 1:1:1:1 ratio.
as §1

human macrophage cells = test: production of IL-6 and TNF-α by human macrophage cells stimulated with LPS in vitro (FIG. 12); type: cell-based; conditions: LPS stimulated increase taken as 100%
Method: C=Control; LPS stimulated increase in IL-6 and TNF-α production taken as 100%; RSv=Resolvin E1; PRt=Protectin D1; MaR=Maresin; L+R+P+M=LXA4=resolvin D1+Protectin D1+Maresin in 1:1:1:1 ratio.
as §1

[3] = test system: adult human retinal pigment epithelial cells, ARPE 19 cells; test: production of PGE2 and VEGF by ARPE 19 cells exposed to LPS (FIG. 13); type: cell-based; conditions: LPS positive control taken as 100%
Method: C=Control; LPS=Positive control taken as 100%; RSv=Resolvin E1; PRt=Protectin D1; MaR=Maresin; L+R+P+M=LXA4=resolvin D1+Protectin D1+Maresin in 1:1:1:1 ratio.
as §1

[4] = test system: leukocyte migration and adherence; test: leukocyte migration and adherence stimulated by LPS in vitro (FIG. 14); type: cell-based; conditions: LPS positive control taken as 100%
Method: C=Control; LPS=positive control taken as 100%; RSv=Resolvin E1; PRt=Protectin D1; MaR=Maresin; L+R+P+M=LXA4=resolvin D1+Protectin D1+Maresin in 1:1:1:1 ratio.
as §1

[5] = test system: experimental animals with DR, AMD, DME, retinopathy of prematurity; test: intravitreal injection in experimental animals with DR, AMD, DME, retinopathy of prematurity (Examples 5-7, FIG. 16); type: in vivo; conditions: for regression of DR, AMD, DME, retinopathy of prematurity: all doses
From the text: The degree of DR in control is taken as 100% which received only the vehicle. All bioactive lipids are able to suppress/reverse/arrest DR to a significant degree. […] Similar results were obtained with AMD, DME and retinopathy of prematurity. AVA=Anti-VEGF antibody; LRPM=Lipoxin A4+resolvin+protectin+maresin; AVA+LRPM=Anti-VEGF antibody+Lipoxin A4+resolvin+protectin+maresin.
[…] with DR, AMD, DME, retinopathy of prematurity (each group consisting of 10 animals: total 40 animals) were treated by direct intravitreal injection of LXA4 free acid form of composition according the examples 1-4 in doses ranging from 10.0 μg/day once in a week for 4 weeks.
In another study, this was similar to the study given in Example 5, except that in this instance different bioactive lipids singly and in combination were tested. Thus, in this study, experimental animals received LXA4, resolvin E1, resolvin D1, protectin D1, maresin 1 or a combination of LXA4+resolvin E1+protectin D1+maresin 1 (in the ratio of 1:1:1:1) were given with appropriate control groups. In this study, different doses of bioactive lipids were used either 5 ng, 10 ng, 15 ng, 20 ng, 50 ng, 100 ng, 200 ng, 500 ng, 1 μg, 5 μg or ranging from 10.0 μg to 100.0 μg per week for 4 weeks; once in 4 weeks for 3 months.
as §1

[6] = effect of ethanol and albumin on stability of LXA4 in solution in vitro (Example 8, FIGS. 17-18); type: physicochemical
Method: C=Control (100%); Concentration of LXA4 used in the test system is 10 μg to which different concentrations of albumin is added and after a specific period of incubation the concentration of LXA4 present in the solution is tested. It is seen that when the % of albumin exceeded 0.01%, the stability of LXA4 is decreased. […] The test system used: LXA4 is dissolved in 0.01% ethanol (pH 7.4) at 37° C. to which different concentrations of albumin is added and at the end of incubation time the concentration of LXA4 present is tested to know whether albumin would influence the stability of LXA4 in the solution.
Concentration of LXA4 tested 100 ng. […] C=Control (100%) (expected). Various doses of albumin were added to LXA4 solution in saline/PBS/ethanol and the stability of LXA4 was tested at the end of different periods of incubation in days. Results were best when ethanol concentration in the solution is between 0.01 to 0.0001% and albumin concentration is between 0.01 to 0.0001%.
The effect of albumin as an exemplary stabilizing agent in compositions of bioactive lipids was tested as follows: To 250 ng of LXA4 dissolved in a solution of saline/PBS with or without 0.01% ethanol was added different concentrations of albumin and after a specific period of incubation the concentration of LXA4 present in the solution was tested.

[7] = production of other bioactive lipids (observation)
From the text: Thus, one bioactive lipid enhances the production and action of other bioactive lipids. In a surprise observation, inventor noted that LXA4 and other bioactive lipids function as autocrine factors enhancing their own production.

[8] = test system: experimental animals with DR, AMD, DME, retinopathy of prematurity; test: intravitreal injection in experimental animals with DR, AMD, DME, retinopathy of prematurity (Examples 5-7, FIG. 16); type: in vivo; conditions: Example 5; 5 ng to 100.0 μg per week for 4 weeks; once in 4 weeks for 3 months; all doses tested
ARPE 19 cells = conditions: LPS induced ARPE 19 cells, cited from earlier work
[9] = test system: adult human retinal pigment epithelial cells, ARPE 19 cells; test: production of BDNF by ARPE 19 cells exposed to LPS (FIG. 15); type: cell-based; conditions: saline control taken as 100%
Method: C=Saline control taken as 100%; LPS=LPS-induced decrease in BDNF production; RSv=Resolvin E1; PRt=Protectin D1; MaR=Maresin; L+R+P+M=LXA4=resolvin D1+Protectin D1+Maresin in 1:1:1:1 ratio.
as §1

neovascularization = conditions: retina; literature; cited from earlier work
[10] = Example 6, lipids singly and in combination, 5 ng to 100.0 μg per week for 4 weeks, once in 4 weeks for 3 months
[11] = Example 7, with or without anti-VEGF antibody, 5 ng to 25.0 μg once in 4 weeks for 3 months

Molecule	regression of DR, AMD, DME, retinopathy of prematurity [5, 10]	regression of DR, AMD, DME, retinopathy of prematurity [5, 11]	production of BDNF [9]	protection against neovascularization (neovascularization)	other results
CCCCC[C@H](O)/C=C/C=C\C=C\C=C\[C@@H](O)[C@@H](O)CCCC(=O)O [LXA4, lipoxin A4]	substantial regression	substantial regression			suppression of VEGF-induced angiogenesis [1]: most effective; cytoprotective action against STZ-induced cytotoxic action [2]: most effective; production of IL-6 and TNF-α (human macrophage cells): most effective; production of PGE2 and VEGF [3]: most potent; leukocyte migration and adherence [4]: most potent; reduction in the degree of DR, AMD, DME, and retinopathy of prematurity ([5]; Example 5, direct intravitreal injection, 10.0 μg/day once in a week for 4 weeks, all 40 animals): significant reduction; stability of LXA4 ([6]; Example 8, 250 ng LXA4 in saline/PBS, albumin between 0.01 to 0.0001% compared to LXA4 concentration): optimum; stability of LXA4 ([6]; Example 8, ratio LXA4/albumin 0.01% to 0.0001%, in the presence of 0.01% ethanol): more stable; stability of LXA4 ([6]; FIG. 17, albumin between 0.01% to 0.001%, LXA4 10 μg in 0.01% ethanol, pH 7.4, 37° C.): stable and active; stability of LXA4 ([6]; FIG. 17, albumin exceeded 0.01%, LXA4 10 μg in 0.01% ethanol, pH 7.4, 37° C.): decreased; stability of LXA4 at different times ([6]; FIG. 18, LXA4 100 ng in saline/PBS/ethanol, ethanol 0.01 to 0.0001% and albumin 0.01 to 0.0001%, incubation in days): best; production of other bioactive lipids such as resolvins, protectins and maresins [7]: enhanced; regression of DR, AMD, DME, retinopathy of prematurity [8]: substantial regression; IL-6 levels (ARPE 19 cells; 10 nmol/L, p=0.036): decreased
CC/C=C\C/C=C\C[C@H](O)\C=C/C=C/C=C/[C@H](O)C/C=C\CCC(=O)O [Maresin, maresin 1]	substantial regression	substantial regression	more potent than LXA4		
CC/C=C\C[C@H](O)\C=C/C=C/C=C/[C@H](O)C/C=C\C/C=C\CCC(=O)O [Neuroprotectin D1, reference compound]				protected against neovascularization	
CC/C=C\C[C@H](O)\C=C/C=C/C=C/[C@H](O)C/C=C\C/C=C\CCC(=O)O [Protectin D1, protectin D1]	substantial regression	substantial regression	more potent than LXA4		
CC[C@@H](O)/C=C/C=C\C[C@@H](O)/C=C/C=C/C=C\[C@@H](O)CCCC(=O)O [Resolvin E1, resolvin E1]	substantial regression	substantial regression	more potent than LXA4	protected against neovascularization	
CC/C=C\C[C@H](O)/C=C/C=C\C=C\C=C\[C@@H](O)[C@@H](O)C/C=C\CCC(=O)O [resolvin D1]	substantial regression	substantial regression		protected against neovascularization	
B1					IL-6 levels (ARPE 19 cells; 500 pg, p=0.0002): decreased
